In brackets after ≈: the same amount, converted by molar mass.
Experiments:
CCRF-CEM = assay: Growth inhibition of human CCRF-CEM cells at 10^-5 M incubated for 48 hrs by sulforhodamine B assay; format: functional; conditions: read-out: GI
HL-60(TB) = assay: Growth inhibition of human HL-60(TB) cells at 10^-5 M incubated for 48 hrs by sulforhodamine B assay; format: functional; conditions: HL-60, 48 h, read-out: GI
K562 = assay: Growth inhibition of human K562 cells at 10^-5 M incubated for 48 hrs by sulforhodamine B assay; format: functional; conditions: K562, 48 h, read-out: GI
MOLT-4 = assay: Growth inhibition of human MOLT4 cells at 10^-5 M incubated for 48 hrs by sulforhodamine B assay; format: functional; conditions: MOLT-4, 48 h, read-out: GI
SR = assay: Growth inhibition of human SR cells at 10^-5 M incubated for 48 hrs by sulforhodamine B assay; format: functional; conditions: read-out: GI
A549 = assay: Growth inhibition of human A549/ATCC cells at 10^-5 M incubated for 48 hrs by sulforhodamine B assay; format: functional; conditions: A549, 48 h, read-out: GI
EKVX = assay: Growth inhibition of human EKVX cells at 10^-5 M incubated for 48 hrs by sulforhodamine B assay; format: functional; conditions: read-out: GI
HOP-62 = assay: Growth inhibition of human HOP62 cells at 10^-5 M incubated for 48 hrs by sulforhodamine B assay; format: functional; conditions: HOP-62, 48 h, read-out: GI
HOP-92 = assay: Growth inhibition of human HOP92 cells at 10^-5 M incubated for 48 hrs by sulforhodamine B assay; format: functional; conditions: HOP-92, 48 h, read-out: GI
NCI-H226 = assay: Growth inhibition of human NCI-H226 cells at 10^-5 M incubated for 48 hrs by sulforhodamine B assay; format: functional; conditions: NCI-H226, 48 h, read-out: GI
NCI-H23 = assay: Growth inhibition of human NCI-H23 cells at 10^-5 M incubated for 48 hrs by sulforhodamine B assay; format: functional; conditions: NCI-H23, 48 h, read-out: GI
NCI-H322M = assay: Growth inhibition of human NCI-H322M cells at 10^-5 M incubated for 48 hrs by sulforhodamine B assay; format: functional; conditions: read-out: GI
NCI-H460 = assay: Growth inhibition of human NCI-H460 cells at 10^-5 M incubated for 48 hrs by sulforhodamine B assay; format: functional; conditions: NCI-H460, 48 h, read-out: GI
NCI-H522 = assay: Growth inhibition of human NCI-H522 cells at 10^-5 M incubated for 48 hrs by sulforhodamine B assay; format: functional; conditions: NCI-H522, 48 h, read-out: GI
COLO 205 = assay: Growth inhibition of human COLO205 cells at 10^-5 M incubated for 48 hrs by sulforhodamine B assay; format: functional; conditions: COLO 205, 48 h, read-out: GI
HCC 2998 = assay: Growth inhibition of human HCC2998 cells at 10^-5 M incubated for 48 hrs by sulforhodamine B assay; format: functional; conditions: HCC 2998, 48 h, read-out: GI
HCT-116 = assay: Growth inhibition of human HCT116 cells at 10^-5 M incubated for 48 hrs by sulforhodamine B assay; format: functional; conditions: HCT-116, 48 h, read-out: GI
HCT-15 = assay: Growth inhibition of human HCT15 cells at 10^-5 M incubated for 48 hrs by sulforhodamine B assay; format: functional; conditions: HCT-15, 48 h, read-out: GI
HT-29 = assay: Growth inhibition of human HT-29 cells at 10^-5 M incubated for 48 hrs by sulforhodamine B assay; format: functional; conditions: HT-29, 48 h, read-out: GI
KM12 = assay: Growth inhibition of human KM12 cells at 10^-5 M incubated for 48 hrs by sulforhodamine B assay; format: functional; conditions: KM12, 48 h, read-out: GI
SW-620 = assay: Growth inhibition of human SW620 cells at 10^-5 M incubated for 48 hrs by sulforhodamine B assay; format: functional; conditions: SW-620, 48 h, read-out: GI
IGROV-1 = assay: Growth inhibition of human IGROV1 cells at 10^-5 M incubated for 48 hrs by sulforhodamine B assay; format: functional; conditions: IGROV-1, 48 h, read-out: GI
OVCAR-3 = assay: Growth inhibition of human OVCAR3 cells at 10^-5 M incubated for 48 hrs by sulforhodamine B assay; format: functional; conditions: OVCAR-3, 48 h, read-out: GI
OVCAR-4 = assay: Growth inhibition of human OVCAR4 cells at 10^-5 M incubated for 48 hrs by sulforhodamine B assay; format: functional; conditions: OVCAR-4, 48 h, read-out: GI
OVCAR-5 = assay: Growth inhibition of human OVCAR5 cells at 10^-5 M incubated for 48 hrs by sulforhodamine B assay; format: functional; conditions: OVCAR-5, 48 h, read-out: GI
OVCAR-8 = assay: Growth inhibition of human OVCAR8 cells at 10^-5 M incubated for 48 hrs by sulforhodamine B assay; format: functional; conditions: OVCAR-8, 48 h, read-out: GI
NCI/ADR-RES = assay: Growth inhibition of human NCI/ADR-RES cells at 10^-5 M incubated for 48 hrs by sulforhodamine B assay; format: functional; conditions: read-out: GI
SK-OV-3 = assay: Growth inhibition of human SKOV3 cells at 10^-5 M incubated for 48 hrs by sulforhodamine B assay; format: functional; conditions: SK-OV-3, 48 h, read-out: GI
786-0 = assay: Growth inhibition of human 786-0 cells at 10^-5 M incubated for 48 hrs by sulforhodamine B assay; format: functional; conditions: 786-0, 48 h, read-out: GI
A498 = assay: Growth inhibition of human A498 cells at 10^-5 M incubated for 48 hrs by sulforhodamine B assay; format: functional; conditions: A498, 48 h, read-out: GI
ACHN = assay: Growth inhibition of human ACHN cells at 10^-5 M incubated for 48 hrs by sulforhodamine B assay; format: functional; conditions: read-out: GI
CAKI-1 = assay: Growth inhibition of human Caki1 cells at 10^-5 M incubated for 48 hrs by sulforhodamine B assay; format: functional; conditions: CAKI-1, 48 h, read-out: GI
RXF 393 = assay: Growth inhibition of human RXF393 cells at 10^-5 M incubated for 48 hrs by sulforhodamine B assay; format: functional; conditions: RXF 393, 48 h, read-out: GI
SN12C = assay: Growth inhibition of human SN12C cells at 10^-5 M incubated for 48 hrs by sulforhodamine B assay; format: functional; conditions: read-out: GI
TK-10 = assay: Growth inhibition of human TK10 cells at 10^-5 M incubated for 48 hrs by sulforhodamine B assay; format: functional; conditions: TK-10, 48 h, read-out: GI
UO-31 [1] = assay: Growth inhibition of human UO31 cells at 10^-5 M incubated for 48 hrs by sulforhodamine B assay; format: functional; conditions: UO-31, 48 h, read-out: GI
PC-3 = assay: Growth inhibition of human PC3 cells at 10^-5 M incubated for 48 hrs by sulforhodamine B assay; format: functional; conditions: PC-3, 48 h, read-out: GI
DU-145 = assay: Growth inhibition of human DU145 cells at 10^-5 M incubated for 48 hrs by sulforhodamine B assay; format: functional; conditions: DU-145, 48 h, read-out: GI
MCF7 [2] = assay: Growth inhibition of human MCF7 cells at 10^-5 M incubated for 48 hrs by sulforhodamine B assay; format: functional; conditions: MCF7, 48 h, read-out: GI
MDA-MB-231 = assay: Growth inhibition of human MDA-MB-231 cells at 10^-5 M incubated for 48 hrs by sulforhodamine B assay; format: functional; conditions: MDA-MB-231, 48 h, read-out: GI
Hs-578T = assay: Growth inhibition of human Hs 578T cells at 10^-5 M incubated for 48 hrs by sulforhodamine B assay; format: functional; conditions: read-out: GI
BT-549 = assay: Growth inhibition of human BT549 cells at 10^-5 M incubated for 48 hrs by sulforhodamine B assay; format: functional; conditions: BT-549, 48 h, read-out: GI
T47D = assay: Growth inhibition of human T47D cells at 10^-5 M incubated for 48 hrs by sulforhodamine B assay; format: functional; conditions: read-out: GI
MDA-MB-468 = assay: Growth inhibition of human MDA-MB-468 cells at 10^-5 M incubated for 48 hrs by sulforhodamine B assay; format: functional; conditions: MDA-MB-468, 48 h, read-out: GI
MCF7 [3] = assay: Cytotoxicity against human MCF7 cells assessed as reduction in cell viability after 24 hrs by MTT assay; format: functional, cell-based; conditions: MCF7, 24 h
UO-31 [4] = assay: Cytotoxicity against human UO31 cells assessed as reduction in cell viability after 24 hrs by MTT assay; format: functional, cell-based; conditions: UO-31, 24 h

O=C1CSC2=Nc3c(sc4ccc(Cl)cc34)C(c3cccc([N+](=O)[O-])c3)N12 (stereo unspecified)
inhibition of growth at 10 µM (CCRF-CEM): -12% | inhibition of growth at 10 µM (HL-60(TB)): 5.48% | inhibition of growth at 10 µM (K562): 6.39% | inhibition of growth at 10 µM (MOLT-4): 8.28% | inhibition of growth at 10 µM (SR): 17.6% | inhibition of growth at 10 µM (A549): -1.88% | inhibition of growth at 10 µM (EKVX): 21.2% | inhibition of growth at 10 µM (HOP-62): 11% | inhibition of growth at 10 µM (HOP-92): -8.65% | inhibition of growth at 10 µM (NCI-H226): 13.7% | inhibition of growth at 10 µM (NCI-H23): 10.5% | inhibition of growth at 10 µM (NCI-H322M): 5.33% | inhibition of growth at 10 µM (NCI-H460): -3.7% | inhibition of growth at 10 µM (NCI-H522): 9.11% | inhibition of growth at 10 µM (COLO 205): -4.05% | inhibition of growth at 10 µM (HCC 2998): -24.4% | inhibition of growth at 10 µM (HCT-116): -0.32% | inhibition of growth at 10 µM (HCT-15): -1.95% | inhibition of growth at 10 µM (HT-29): -8.35% | inhibition of growth at 10 µM (KM12): -3.54% | inhibition of growth at 10 µM (SW-620): -3.15% | inhibition of growth at 10 µM (IGROV-1): 17.3% | inhibition of growth at 10 µM (OVCAR-3): 0.32% | inhibition of growth at 10 µM (OVCAR-4): 2.1% | inhibition of growth at 10 µM (OVCAR-5): -6.83% | inhibition of growth at 10 µM (OVCAR-8): 0.58% | inhibition of growth at 10 µM (NCI/ADR-RES): 12.2% | inhibition of growth at 10 µM (SK-OV-3): 7.65% | inhibition of growth at 10 µM (786-0): -7.37% | inhibition of growth at 10 µM (A498): -13.1% | inhibition of growth at 10 µM (ACHN): 3.93% | inhibition of growth at 10 µM (CAKI-1): 20% | inhibition of growth at 10 µM (RXF 393): -10.1% | inhibition of growth at 10 µM (SN12C): 2.31% | inhibition of growth at 10 µM (TK-10): -14.8% | inhibition of growth at 10 µM (UO-31 [1]): 38.3% | inhibition of growth at 10 µM (PC-3): 1.11% | inhibition of growth at 10 µM (DU-145): -14.2% | inhibition of growth at 10 µM (MCF7 [2]): 17.9% | inhibition of growth at 10 µM (MDA-MB-231): 10.8% | inhibition of growth at 10 µM (Hs-578T): -2.09% | inhibition of growth at 10 µM (BT-549): -21.8% | inhibition of growth at 10 µM (T47D): 8.22% | inhibition of growth at 10 µM (MDA-MB-468): 4.8%

O=c1[nH]c(=S)[nH]c(-c2ccccc2)c1Cc1c(O)ccc2ccccc12 [CAMBINOL]
IC50 (MCF7 [3]): 33.9 µg/mL (≈ 94.2 µM) | IC50 (UO-31 [4]): 98.6 µg/mL (≈ 274 µM)

From ChEMBL document CHEMBL4414672, “Synthesis of certain benzothieno[3,2-d]pyrimidine derivatives as a selective SIRT2 inhibitors” (Eur J Med Chem, 2020)
